Our source for the IC50 values is ChEMBL document CHEMBL1134424, “Synthesis and evaluation of caffeic acid amides as antioxidants” (Bioorg Med Chem Lett, 2001).

By pIC50 is commonly meant −log10 of the IC50, conventionally taken in molar units. Lower therefore signals a large IC50.

pIC50: −log10 of the molar value.

The test can be described thus: Evaluated for the antioxidant property by measuring the inhibition of microsomal lipid peroxidation. The format is functional.
`CC(C)CCNC(=O)/C=C/c1ccc(O)c(O)c1` showed a negative logarithm of the IC50 (pIC50) of 5.85.

`Cc1c(C)c2c(c(C)c1O)CCC(C)(C(=O)O)O2` (stereo not given) [TROLOX] showed a pIC50 of 5.55.

`O=C(/C=C/c1ccc(O)c(O)c1)N1CCCC1` gave a negative-log IC50 (pIC50) of 5.62.

Regarding `O=C(/C=C/c1ccc(O)c(O)c1)Nc1cccc(O)c1`, the pIC50 is 6.43.

The molecule `O=C(/C=C/c1ccc(O)c(O)c1)NCc1ccccc1` gave a pIC50 of 5.99.

Consider `CC(C)NC(=O)/C=C/c1ccc(O)c(O)c1`, for which the pIC50 was 5.41.

On to `O=C(/C=C/c1ccc(O)c(O)c1)NCCc1ccccc1` [CAFFEIC ACID PHENETHYL AMIDE], for which the pIC50 was 6.07.

`C=CCNC(=O)/C=C/c1ccc(O)c(O)c1` gave a pIC50 of 5.66.

`CCN(CC)C(=O)/C=C/c1ccc(O)c(O)c1` gave a pIC50 of 5.39. Against the preceding molecule, the pIC50 is 0.27 log units lower.

Consider `O=C(/C=C/c1ccc(O)c(O)c1)Nc1ccccc1O`, for which the pIC50 is 6.54.

As for `CNC(=O)/C=C/c1ccc(O)c(O)c1`, the pIC50 is 5.22.

Take `CCNC(=O)/C=C/c1ccc(O)c(O)c1`: the pIC50 is 5.57.

Take `O=C(/C=C/c1ccc(O)c(O)c1)N1CCCCC1`: the negative-log IC50 (pIC50) is 5.44.

The molecule `O=C(O)/C=C/c1ccc(O)cc1` [COUMARIC ACID] had a pIC50 of 4.00.

In the case of `CC(C)=CCNC(=O)/C=C/c1ccc(O)cc1`, the pIC50 is 4.54. This pIC50 is 0.54 log units higher than that of the molecule before.

Regarding `COC(=O)C(Cc1ccc(O)cc1)NC(=O)/C=C/c1ccc(O)c(O)c1` (stereo not given), the pIC50 is 5.49.

The molecule `NC(=O)/C=C/c1ccc(O)c(O)c1` had a pIC50 of 5.66.

`O=C(O)/C=C/c1ccc(O)c(O)c1` [CAFFEIC ACID] had a pIC50 of 5.48. This pIC50 and that of the molecule before are within 0.2 log units of each other.

On to `O=C(/C=C/c1ccc(O)c(O)c1)Nc1ccc(O)cc1`, for which the pIC50 was 6.20. Against the preceding molecule, the pIC50 is 0.72 log units higher.

`CC(C)CNC(=O)/C=C/c1ccc(O)c(O)c1` gave a pIC50 of 5.66.

Regarding `O=c1c(O)c(-c2ccc(O)c(O)c2)oc2cc(O)cc(O)c12` [QUERCETIN], the pIC50 is 6.02.

For the molecule `O=C(/C=C/c1ccc(O)c(O)c1)Nc1ccccc1`, the negative-log IC50 (pIC50) was 6.42.

Consider `O=C(/C=C/c1ccc(O)c(O)c1)NCCc1ccc(O)c(O)c1`, for which the pIC50 is 6.23.

`O=C(/C=C/c1ccc(O)c(O)c1)N1CCOCC1` gave a pIC50 of 5.21.

In turn, `CC(C)=CCNC(=O)/C=C/c1ccc(O)c(O)c1` gave a negative logarithm of the IC50 (pIC50) of 5.47.
